Results on 8 compounds are retold here after patent US8071793B2, “Macrolide compound” (National University Corporation Hokkaido University, priority 2006, dated 2011).

≈ marks a conversion by molar mass, not a printed value.

In data set [1] the test system is Human BuRkitt's lymphoma cell line (DG-75, ATCC No. CRL-2675). As to the kind of experiment: Proliferation inhibition of human Burkitt's lymphoma cell line DG-75 (Cell Counting Kit-8). The following applies: DG-75 cells, 72 hours culture, Cell Counting Kit-8, absorbance 450 nm; for IC50: Homo sapiens, read-out: IC50 (compound concentration with a proliferation-inhibition rate of 50%), DG-75. The format is cell-based. How it is done:
(§1) Human BuRkitt's lymphoma cell line (DG-75, ATCC No. CRL-2675) or human Burkitt's lymphoma cell line (Raji, ATCC No. CRL-86) was suspended in an RPMI-1640 medium (SIGMA) (hereinafter called culture solution) containing 10% calf serum (Moregate) and 10% fetal bovine serum (Hyclone) so as to set the cell number at 1×10^5/mL. After 50 μL of the cell suspension was added to a 96-well microplate, 49 μL of the above culture solution was added thereto to set the whole volume at 99 μL. Compounds represented by Formulae (6) to (11) that solved in DMSO, 5-FU (Wako) or doxorubicin (Wako) (all 0.0001 to 10 μg/mL) were each added to one well by 1 μL, and cultured with a CO2 concentration of 5% at 37° C. for 72 hours. After culturing, 10 μL of Wako cell Counting Kit-8 (Wako) was added to each well and subjected to color reaction in a CO2 incubator for 3 hours. Proliferation-inhibition rate was calculated from absorbance values measured with a microplate reader at 450 nm (reference wavelength: 620 nm) using the following expression to determine a compound concentration in a culture solution with a proliferation-inhibition rate of 50% as IC50 value.

Data set [2] deals with Meth A fibrosarcoma cells. Description: Anticancer activity in mice with transplanted Meth A fibrosarcoma cells (tumor weight). The format is in vivo, Balb/c mouse. The following applies: for Proliferation-inhihition rate (%): 1/3 of the whole volume at 7th, 9th and 11th days, tumor weight at 21st day, female Balb/c mouse. Here is the method:
A compound represented by Formula (8) (50 to 500 μg/kg) that solved in ethanol or 5-FU (10 mg/kg) was administered to an 8-week old female Balb/c mouse (Japan SLC) having approx. 1×10^5 of Meth A fibrosarcoma cells (Kitasato Institute) intraperitoneally transplanted therein by ⅓ of the whole volume at 7th, 9th and 11th days intravenously (but 5-FU administered intraperitoneally) to measure tumor weight at 21st day. Using a control mouse to which normal saline solution was administered in lieu of a test compound, anticancer activity on each compound was expressed in number according to a formula of proliferation-inhibition rate (%)=(1−(sample/blank))×100.

In data set [3] the test system is human Burkitt's lymphoma cell line (Raji, ATCC No. CRL-86). As to the kind of experiment: Proliferation inhibition of human Burkitt's lymphoma cell line Raji (Cell Counting Kit-8). The format is cell-based. The following applies: Raji cells, 72 hours culture, Cell Counting Kit-8, absorbance 450 nm; for IC50: Homo sapiens, read-out: IC50 (compound concentration with a proliferation-inhibition rate of 50%), Raji. How it is done: as §1

A short description of data set [4]: Solubility in solvents (physicochemical description). The settings on record: qualitative, organic solvents and water.

`O=c1[nH]cc(F)c(=O)[nH]1` [Compound 5-FU, 5-FU, reference compound]: the “IC50 (compound concentration with a proliferation-inhibition rate of 50%), DG-75” value in data set [1] stood at 0.9 µg/mL. The “Proliferation-inhihition rate (%)” value in data set [2] (10000 μg/kg (10 mg/kg), intraperitoneally) is given as 60.2%. Moreover, the “IC50 (compound concentration with a proliferation-inhibition rate of 50%), Raji” value in data set [3] came out at 3.0 µg/mL.

For the compound `C=C1/C=C(\C)C(C)CC(O)CC(=O)C(O)C(O)C(C)CC(C)OC(=O)/C(C)=C/CCCCC2OC2CC(C)C1` (stereo not drawn) [Compound 7], in data set [1], the IC50 stood at 0.4 µg/mL (≈ 0.729 µM). In data set [4], the Solubility entry is “soluble in alcohol, chloroform, ethyl acetate and acetone, insoluble in hexane and water”.

As to `C=C1CC2C/C=C/C(O)C(C)/C(C)=C\C(=O)OC(CC(C)C(C)O)C(C)C/C=C/C(C)(O)C(O)(C1)O2` (stereo not drawn) [Compound 8], the IC50 in data set [1] was 0.002 µg/mL (≈ 0.00395 µM); in data set [3], 0.003 µg/mL (≈ 0.00592 µM). Further, the Solubility entry in data set [4] was “soluble in chloroform, acetone, ethyl acetate, ethanol and methanol, insoluble in water and hexane”. Moreover, the “Proliferation-inhihition rate (%)” value is given as 5.3% in data set [2] (50 μg/kg, intravenously); 62.2% in data set [2] (200 μg/kg, intravenously); 54.3% in data set [2] (500 μg/kg, intravenously). In data set [2] (Meth A fibrosarcoma mouse model, Formula (8) administered with a lower concentration than 5-FU), the “Proliferation-inhibition rate (anticancer activity) compared with 5-FU” value was “almost the same proliferation-inhibition rate (anticancer activity) as 5-FU”.

For the compound `C=C1/C=C(\C)C(C)CC(O)CC(=O)C(O)C(O)C(C)CC(C)OC(=O)C(C)C(O)CCCCC2OC2CC(C)C1` (stereo not drawn) [Compound 6], the IC50 in data set [1] is 0.02 µg/mL (≈ 0.0353 µM). In data set [4], the Solubility result is “soluble in alcohol, chloroform, ethyl acetate and acetone, insoluble in hexane and water”.

Regarding `C=C(C(O)CC)C(C)C(O)C1CCC/C(C)=C/C2OC(CC2C)C2OC(CC/C=C/CCC(C)C(=O)O1)CC2O` (stereo not drawn) [Compound 10], the results for the IC50 in data set [1] and in data set [3] were 0.006 µg/mL (≈ 0.0107 µM) and 0.01 µg/mL (≈ 0.0178 µM), respectively. In addition, the Solubility result in data set [4] was “soluble in chloroform, acetone, ethyl acetate and ethanol, insoluble in water and hexane”.

For `COc1cccc2c1C(=O)c1c(O)c3c(c(O)c1C2=O)C[C@@](O)(C(=O)CO)C[C@@H]3O[C@H]1C[C@H](N)[C@H](O)[C@H](C)O1` [Doxorubicin, doxorubicin, reference compound], the IC50 in data set [1] stood at 0.04 µg/mL (≈ 0.0736 µM); in data set [3] it was 0.02 µg/mL (≈ 0.0368 µM).

For the compound `C/C=C/C/C=C/C(C)CC(O)C1CC2OC2/C=C/C(O)C(O)/C=C/CC(C)CC(=O)O1` (stereo not drawn) [Compound 11], the IC50 turned out to be 0.08 µg/mL (≈ 0.184 µM) in data set [1] and 0.05 µg/mL (≈ 0.115 µM) in data set [3]. Further, in data set [4], the Solubility entry was “soluble in chloroform, acetone, ethyl acetate and ethanol, insoluble in water and hexane”.

With `C/C1=C/C(=O)C(C)(O)/C=C/CC(C)C(CC(C)C(C)O)OC(=O)/C=C(/C)C(C)C(O)/C=C/CC(O)C1` (stereo not drawn) [Compound 9], the IC50 in data set [1] came to 0.9 µg/mL (≈ 1.78 µM). In addition, the Solubility result in data set [4] is “soluble in chloroform, acetone, ethyl acetate and ethanol, insoluble in water and hexane”.
